In this assay the test system is rabbit platelet (collagen-induced aggregation). The assay can be described thus: Platelet aggregation inhibitory effect, collagen-induced aggregation in rabbit platelet. In kind it is cell-based. The settings on record: Oryctolagus cuniculus, read-out: Inhibition effect on collagen-induced aggregation in rabbit platelet; for inhibition at 100 µM: concentration of the test compound solution 10^-4 mole; for inhibition at 10 µM: concentration of the test compound solution 10^-5 mole; for inhibition at 1 µM: concentration of the test compound solution 10^-6 mole. An excerpt:
The blood sample used for the test is a 1/9 (by volume) mixture of sodium citrate and whole blood collected from rabbit. Said sample is subjected to 10-minute centrifugal separation at 1,000 r.p.m. to obtain a platelet rich plasma (PRP). The thus obtained PRP is separated, and the remaining blood sample is further subjected to 15-minute centrifugal separation at 3,000 r.p.m. to obtain a platelet poor plasma (PPP).
The number of platelets in the PRP is counted by the Brecher-Clonkite Method, and the PRP is diluted with the PPP to prepare a PRP sample with platelet concentration of 300,000/mm^3 for the adenosine diphosphate (ADP)-induced aggregation test. There is also prepared a PRP sample with platelet concentration of 450,000/mm^3 for the collagen-induced aggregation test.
0.6 Ml of said PRP sample is added into 0.01 ml of a solution of a test compound of a predetermined concentration and the mixture is placed in a 37° C. thermostat for one minute. Then 0.07 ml of an ADP or collagen solution is added to the mixture. Transmittance of this mixture is determined and the change of transmittance is recorded by using the aggregometer at stirrer speed of 1,100 r.p.m. […] ADP is adjusted to a concentration of 7.5×10^-5 M, and the collagen solution is prepared by triturating 100 mg of collagen with 5 ml of said buffer and the supernatant is used as collagen inducer. Adenosine and acetylsalicylic acid are used as controls for the ADP-induced aggregation test and the collagen-induced aggregation test, respectively. The platelet aggregation inhibitory effect is measured in terms of percent inhibition with respect to the aggregation rate of the controls. The aggregation rate is calculated from the following formula: [formula] wherein a: transmittance of PRP
b: transmittance of PRP containing a test compound and an aggregation inducer
The compounds tested are as follows.

Broadly, the inhibition is the relative decrease from the control value, in per cent.

Consider `O=c1ccc2cc(OCCCCc3nnnn3C3CCCCC3)ccc2[nH]1` [Compound 7, 6-[4-(1-Cyclohexyltetrazol-5-yl)butoxy]carbostyril], for which the inhibition at 100 µM came to 100%, the inhibition at 10 µM turned out to be 100% and the inhibition at 1 µM was determined as 26.8%.
Take `O=c1ccc2cc(OCCCc3nnnn3CC3CCCCC3)ccc2[nH]1` [Compound 5, 6-[3-(1-Cyclohexylmethyltetrazol-5-yl)propoxy]carbostyril]: the inhibition at 100 µM worked out at 100%, the inhibition at 10 µM was determined as 100% and the inhibition at 1 µM was determined as 24.7%.
Regarding `O=c1ccc2cc(OCCCc3nnnn3C3CCCCC3)ccc2[nH]1` [Compound 1, 6-[3-(1-Cyclohexyltetrazol-5-yl)propoxy]carbostyril], the inhibition at 100 µM was found to be 100%, the inhibition at 10 µM worked out at 100% and the inhibition at 1 µM came out at 25.9%.
As to `O=c1ccc2cc(OCCCc3nnnn3C3CCCCCCC3)ccc2[nH]1` [Compound 6, 6-[3-(1-Cyclooctyltetrazol-5-yl)propoxy]carbostyril], the inhibition at 100 µM was found to be 100%, the inhibition at 10 µM was determined as 100% and the inhibition at 1 µM worked out at 27.4%.

(Values after patent US4277479A, “Tetrazolylalkoxycarbostyril derivatives and pharmaceutical compositions containing them” (Otsuka Pharmaceutical Co., Ltd., priority 1978, dated 1981).)
